Values after ≈ are worked out from the molar mass of the structure shown. Where a SMILES comes first, the peptide text is derived from it. Where no end group is shown, it is not given here. [ ]: non-standard residue; d: D form. The star is where a group is joined. Orn(α-tetramethylguanidino) = CN(C)C(=N[C@@H](CCCN)C(=O)*)N(C)C; hArg = N=C(N)NCCCC[C@H](N)C(=O)O; Orn = NCCC[C@H](N)C(=O)O Some results are limits rather than exact numbers.

Data set [1] can be described thus: in vitro. Format: in vitro ADME, mouse. As to conditions: 25% aqueous mouse serum, 37° C.; read-out: Half-life time. How it is done:
Serum stability studies were carried out in duplicate as described by Hoffmann et al.. Briefly, 28 μL of an aqueous peptide or peptidomimetics solution (0.5 mg/mL) was added to 0.2 mL freshly pooled 25% mouse serum (Sigma-Aldrich GmbH, Taufkirchen, Germany) in water. The mixtures were incubated at 37° C. under gentle stirring. The proteins were precipitated with 40 μL of 15% aqueous TCA after incubation times of 0, 0.5, 1, 2, 4 and 6 h at 0° C. for 20 min before centrifuged (13500×G) at 4° C. for 5 min. The supernatants of all samples (240 μL) were neutralized with 1 mol/L aqueous NaOH and immediately stored at −20° C. The supernatants were analyzed by RP-HPLC using a linear acetonitrile gradient as described above with 0.1% TFA as ion pair reagent. Collected fractions of the main peaks were further analyzed by tandem mass spectrometry (MALDI-TOF/TOF-MS, 4700 Proteomics Analyzer, Applied Biosystems GmbH, Weiterstadt, Germany) in positive ion reflector mode using α-cyanohydroxycinnamic acid (50% CH3CN in 0.1% aqueous TFA) as matrix to identify the degradation products of the peptides and peptidomimetics, i.e., metabolites, at the different time points. Serum control samples consisted of 200 μL of pooled 25% mouse serum in water, which were also precipitated with 40 μL 15% aqueous TCA, as described before. Peptide reference samples consisted of 28 μL of the peptide stock solution diluted in 0.2 mL water and 40 μL of 15% aqueous trichloroacetic acid (TCA).

In data set [2] the test system is K. pneumonia 681. Format: cell-based, Klebsiella pneumoniae. As to conditions: 20 h. The method, then:
(§1) The minimal inhibition concentrations (MIC) of the apidaecin-derived peptides and peptide-derivatives were determined by a growth inhibition assay using a serial peptide dilution in sterilized round-bottom 96-well plates (polystyrene, U-bottom, Greiner Bio-One GmbH) with a final volume of 100 μL per well. The bacteria, e.g., E. coli BL21 A1, were grown in nutrient broth (NB, Carl Roth GmbH+Co. KG, Karlsruhe, Germany) at 37° C. over night. To each well of the 96-well plate, 50 μL of the overnight culture adjusted to 5×10^6 CFU/mL in 1% TSB were added. Lyophilized peptides and peptidomimetics were dissolved in 1% TSB (tryptic soy broth) or water to give a final concentration of 250 μg/mL. Fifty μL of the peptide or peptidomimetics solution were added to the first well of a row on the plate and mixed. Fifty μL of the first well containing the peptide solution were transferred to the second well, mixed and again 50 μL transferred to the next well and so on. Thereby, a two-fold dilution series was obtained starting at 250 μg/mL in the first well down to 120 ng/mL in the 12th well of a row giving a final peptide or peptidomimetics concentration from 125 μg/mL (well 1) to 60 ng/mL (well 12). Plates were incubated at 37° C. for 20 hrs. The absorbance was measured at 595 nm using a TECAN micro plate spectrophotometer (Tecan, Germany). All peptides and peptidomimetics were measured in triplicates. Sterilized water was used as a negative control.
(§2) The bacteria strains were tested: • Eschericha coli 1103, 10233, BL 21 AI, DC 2, • Klebsiella pneumoniae 681, • Micrococcus luteus ATCC 10240, • Mycobacterium vaccae • Bactillus subtillis 347.

The subject of data set [3] is M. luteus ATCC 10240. Format: cell-based, Micrococcus luteus. The settings on record: ATCC 10240, 20 h. A digest of the protocol:
(§3)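 Bacteria grown overnight in NB at 37° C. were adjusted to 5×10^6 CFU/mL in 1% TSB and mixed 1:1 with a two-fold peptide series (final 125 μg/mL–60 ng/mL). After 20 hrs at 37° C., A595 was read; triplicates.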

The test system of data set [4] is E. coli 1103. Format: cell-based, Escherichia coli. The settings on record: 1103, 20 h. The method, then: as §1, §2
In data set [5] the test system is B. subtilis 347. The data set is classed as cell-based, Bactillus subtillis. As to conditions: 347, 20 h. The method, then:
as §1, §2

In data set [6] the test system is E. coli BL 21 AI. Nature of the data set: Growth inhibition assay (MIC). The data set is classed as cell-based, Escherichia coli. As to conditions: 1% TSB, 37° C., 20 hrs. A digest of the protocol: as §3
For data set [7], the system named is E. coli D31. The data set is classed as cell-based, Escherichia coli. As to conditions: D31, 20 h. The method, boiled down:
(§4)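 Peptides were serially diluted two-fold in 1% TSB to give final concentrations from 125 μg/mL to 60 ng/mL. Bacteria grown overnight in nutrient broth at 37° C. were added at 5×10^6 CFU/mL. Plates were incubated 20 hrs at 37° C. and absorbance at 595 nm recorded.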

The test system of data set [8] is S. enterica subsp. Enterica serovar. typhi G10215 ATCC 700408. The data set is classed as cell-based, Salmonella enterica. As to conditions: ATCC 700408, 20 h. A digest of the protocol: as §4
The test system of data set [9] is S. typhi S5. The data set is classed as cell-based, Salmonella typhi. As to conditions: S5, 20 h. A digest of the protocol: as §4
Data set [10] concerns E. coli 45849. Kind of data set: Growth inhibition assay (MIC). The settings on record: multidrug resistant strain; 1% TSB, 37° C., 20 hrs. Format: cell-based, Escherichia coli. A digest of the protocol: as §4
In data set [11] the test system is K. Pneumonia 123132. Nature of the data set: Growth inhibition assay (MIC). Format: cell-based, Klebsiella pneumoniae. As to conditions: multidrug resistant strain; 1% TSB, 37° C., 20 hrs. The method, boiled down:
as §4

The test system of data set [12] is K. Pneumonia K6, ATCC 700603. Nature of the data set: Growth inhibition assay (MIC). Format: cell-based, Klebsiella pneumoniae. The settings on record: multidrug resistant strain; 1% TSB, 37° C., 20 hrs. A digest of the protocol:
as §4

Data set [13] has as its system E. coli 10233. The data set is classed as cell-based, Escherichia coli. The settings on record: 10233, 20 h. How it is done: as §1, §2

As usually defined, the half-life is the time in which the quantity being followed falls by half. With `CC[C@H](C)[C@H](NC(=O)[C@H](Cc1ccc(O)cc1)NC(=O)[C@@H](NC(=O)[C@@H]1CCCN1C(=O)[C@H](CCCNC(=N)N)NC(=O)[C@H](CC(N)=O)NC(=O)[C@H](CC(N)=O)NC(=O)[C@H](CCCN)NC(C)=O)C(C)C)C(=O)N1CCC[C@H]1C(=O)N[C@@H](CCCNC(=N)N)C(=O)N1CCC[C@H]1C(=O)N[C@@H](CCCNC(=N)N)C(=O)N1CCC[C@H]1C(=O)N1CCC[C@H]1C(=O)N[C@@H](Cc1c[nH]cn1)C(=O)N1CCC[C@H]1C(=O)N[C@@H](CCCCNC(=N)N)C(=O)N[C@@H](CC(C)C)C(N)=O` [compound 131] (Ac-[Orn]NNRPVYIPRPRPPHP[hArg]L-NH2), in [1], the half-life at 0.061 mg/mL amounted to 2 h. Moreover, the “MIC K. pneumonia 681” value in [2] was 16 µg/mL (≈ 7.12 µM). Besides, the “MIC M. luteus ATCC 10240” value in [3] is 0.5 µg/mL (≈ 0.222 µM). In data set [4], the “MIC E. coli 1103” value turned out to be 16 µg/mL (≈ 7.12 µM). Moreover, the “MIC B. subtilis 347” value in [5] came to 32 µg/mL (≈ 14.2 µM). In addition, the “MIC E. coli BL 21 AI” value in data set [6] came out at 4 µg/mL (≈ 1.78 µM).

Take `CC[C@H](C)[C@H](NC(=O)[C@H](Cc1ccc(O)cc1)NC(=O)[C@@H](NC(=O)[C@@H]1CCCN1C(=O)[C@H](CCCNC(=N)N)NC(=O)[C@H](CC(N)=O)NC(=O)[C@H](CC(N)=O)NC(=O)[C@H](CCCN)N=C(N(C)C)N(C)C)C(C)C)C(=O)N1CCC[C@H]1C(=O)N[C@@H](CCCNC(=N)N)C(=O)N1CCC[C@H]1C(=O)N[C@@H](CCCNC(=N)N)C(=O)N1CCC[C@H]1C(=O)N1CCC[C@H]1C(=O)N[C@@H](Cc1c[nH]cn1)C(=O)N1CCC[C@H]1C(=O)N[C@@H](CCCCNC(=N)N)C(=O)N[C@@H](CC(C)C)C(N)=O` [compound 155] ({Orn(α-tetramethylguanidino)}-NNRPVYIPRPRPPHP[hArg]L-NH2): in [1], the half-life is more than 6 h. In addition, the “MIC E. coli D31” value in data set [7] stood at 4 µg/mL (≈ 1.74 µM). For the same molecule, in data set [8], the “MIC S. enterica subsp. Enterica serovar. typhi G10215 ATCC 700408” value came to 0.5 µg/mL (≈ 0.217 µM). Further, the “MIC K. pneumonia 681” value in [2] is 4 µg/mL (≈ 1.74 µM). In addition, the “MIC S. typhi S5” value in data set [9] amounted to 4 µg/mL (≈ 1.74 µM). In [3], the “MIC M. luteus ATCC 10240” value amounted to 1 µg/mL (≈ 0.434 µM). Also, in [10], the “MIC E. coli 45849” value is 4 µg/mL (≈ 1.74 µM). For the same molecule, in data set [4], the “MIC E. coli 1103” value was 4 µg/mL (≈ 1.74 µM). Moreover, in data set [5], the “MIC B. subtilis 347” value stood at 32 µg/mL (≈ 13.9 µM). The “MIC K. Pneumonia 123132” value in [11] was 2 µg/mL (≈ 0.868 µM). Besides, the “MIC K. Pneumonia K6, ATCC 700603” value in [12] amounted to 4 µg/mL (≈ 1.74 µM). Besides, in data set [6], the “MIC E. coli BL 21 AI” value turned out to be 4 µg/mL (≈ 1.74 µM).

GNNRPVYIPQPRPPHPRL [compound 2]: the “MIC E. coli D31” value in data set [7] amounted to 32 µg/mL. Besides, the “MIC S. enterica subsp. Enterica serovar. typhi G10215 ATCC 700408” value in data set [8] is 2 µg/mL. The “MIC K. pneumonia 681” value in data set [2] is 62.5 µg/mL. The “MIC M. luteus ATCC 10240” value in data set [3] worked out at 31.25 µg/mL. Further, in [13], the “MIC E. coli 10233” value stood at 1.95 µg/mL. Besides, the “MIC E. coli 1103” value in data set [4] was found to be 7.81 µg/mL. Moreover, the “MIC B. subtilis 347” value in data set [5] was more than 125 µg/mL. Further, the “MIC K. Pneumonia K6, ATCC 700603” value in data set [12] is 64 µg/mL. In data set [6], the “MIC E. coli BL 21 AI” value was found to be 0.98 µg/mL.

Turning to H-LRPHPPRPQPIYVPRNNG-NH2 [compound 141], the “MIC K. pneumonia 681” value in data set [2] is more than 125 µg/mL. Further, the “MIC M. luteus ATCC 10240” value in data set [3] is more than 125 µg/mL. The “MIC E. coli 10233” value in data set [13] is more than 125 µg/mL. Further, the “MIC E. coli 1103” value in [4] was more than 125 µg/mL. In addition, the “MIC B. subtilis 347” value in data set [5] was more than 125 µg/mL. Besides, the “MIC E. coli BL 21 AI” value in [6] is more than 125 µg/mL.

The values above are taken from patent US20150315241A1, “Antibiotic Peptides” (priority 2007, published 2015).
